Results taken from ChEMBL document CHEMBL2417370, “The effect of novel [3-fluoro-(2-phosphonoethoxy)propyl]purines on the inhibition of Plasmodium falciparum, Plasmodium vivax and human hypoxanthine-guanine-(xanthine) phosphoribosyltransferases” (Eur J Med Chem, 2013).
Calls of active or inactive are those of the source. No cut-off for these calls is given here.

Legend:
Bordetella pertussis = assay: Effect on Bordetella pertussis adenylyl cyclase
Maize streak virus = assay: Antiviral activity against MSV; format: functional
Hepatitis C virus = assay: Antiviral activity against HCV; format: functional, organism-based; details: Hepacivirus hominis
[1] = tested on: Human immunodeficiency virus; assay: Antiviral activity against HIV; format: functional, organism-based
[2] = Inhibition of recombinant Plasmodium vivax HGXPRT expressed in Escherichia coli by spectrophotometric analysis
[3] = molecular target: T1, Hypoxanthine-guanine phosphoribosyltransferase (Homo sapiens, UniProt P00492); assay: Inhibition of recombinant human HGPRT expressed in Escherichia coli Sphi606 cells by spectrophotometric analysis
T1 sequence (P00492 whole entry): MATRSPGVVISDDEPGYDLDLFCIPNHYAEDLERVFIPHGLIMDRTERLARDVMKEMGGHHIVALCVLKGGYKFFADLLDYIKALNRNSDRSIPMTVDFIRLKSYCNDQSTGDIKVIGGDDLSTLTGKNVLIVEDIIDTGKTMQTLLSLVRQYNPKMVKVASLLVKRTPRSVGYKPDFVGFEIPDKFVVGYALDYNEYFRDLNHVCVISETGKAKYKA

[4] = Inhibition of recombinant Plasmodium falciparum HGXPRT expressed in Escherichia coli Sphi606 cells by spectrophotometric analysis

Row | SMILES | Activity (Bordetella pertussis) | Ki [3] | Activity (Maize streak virus) | Activity (Hepatitis C virus) | Activity [1] | Ki [2] | Ki [4]
1 | Nc1ncnc2c1ncn2CC(CF)OCCP(=O)(O)O (stereo unspecified) | inactive |  | inactive | inactive | inactive |  | 
2 | Nc1nc(O)c2ncn(C[C@H](CF)OCP(=O)(O)O)c2n1 |  | ≥ 300 µM |  |  |  | ≥ 300 µM | ≥ 300 µM
3 | Nc1nc(N)c2ncn(CC(CF)OCCP(=O)(O)O)c2n1 (stereo unspecified) | inactive |  | inactive | inactive | inactive |  | 
4 | Nc1nc(NC2CC2)c2ncn(CC(CF)OCCP(=O)(O)O)c2n1 (stereo unspecified) | inactive |  | inactive | inactive | inactive |  | 
5 | O=c1[nH]cnc2c1ncn2C[C@@H](CF)OCP(=O)(O)O |  | ≥ 250 µM |  |  |  | ≥ 250 µM | 13 µM

Further lines, with some results ahead:

Row | Activity (Bordetella pertussis) | Ki [3] | SMILES | Activity (Maize streak virus) | Activity (Hepatitis C virus) | Activity [1] | Ki [2] | Ki [4]
6 | inactive | 4.7 µM | Nc1nc2c(ncn2C[C@H](CF)OCCP(=O)(O)O)c(=O)[nH]1 | inactive | inactive | inactive | 29 µM | 1 µM
7 | inactive | ≥ 200 µM | O=c1[nH]cnc2c1ncn2C[C@H](CF)OCCP(=O)(O)O | inactive | inactive | inactive | ≥ 200 µM | ≥ 200 µM
8 |  | ≥ 250 µM | Nc1nc(O)c2ncn(C[C@@H](CF)OCP(=O)(O)O)c2n1 |  |  |  | ≥ 250 µM | ≥ 250 µM
9 | inactive | 5.4 µM | O=c1[nH]cnc2c1ncn2CC(CF)OCCP(=O)(O)O (racemic) | inactive | inactive | inactive | ≥ 100 µM | ≥ 200 µM
10 | inactive | 1.6 µM | O=c1[nH]cnc2c1ncn2C[C@@H](CF)OCCP(=O)(O)O | inactive | inactive | inactive | ≥ 300 µM | ≥ 300 µM
11 |  | ≥ 200 µM | O=c1[nH]cnc2c1ncn2C[C@H](CF)OCP(=O)(O)O |  |  |  | ≥ 200 µM | 63 µM
12 | inactive | 3.7 µM | Nc1nc2c(ncn2CC(CF)OCCP(=O)(O)O)c(=O)[nH]1 (racemic) | inactive | inactive | inactive | 7 µM | 1 µM
13 | inactive | 0.1 µM | Nc1nc2c(ncn2C[C@@H](CF)OCCP(=O)(O)O)c(=O)[nH]1 | inactive | inactive | inactive | 3.4 µM | 1.2 µM
